Measurements published in patent publication US9463247B2, “Branched alkyl and cycloalkyl terminated biodegradable lipids for the delivery of active agents” (ALNYLAM PHARMACEUTICALS, INC., priority 2011, dated 2016).

Each compound was assayed on Factor VII (FVII) (assay: In vivo determination of efficacy of lipid formulations: FVII knockdown in mice (Biophen FVII chromogenic assay)). Conditions: FVII siRNA lipid formulation containing the cationic lipid; i.v. lateral tail vein; female C57Bl/6 mice; serum 24 hours later; dose resulting in a 50% reduction in plasma FVII levels compared to control animals.
Design: species or system mouse (C57Bl/6)
Method: Test formulations were prepared using the following in-line mixing method: […]
Individual and separate stock solutions are prepared—one containing lipid and the other siRNA. Lipid stock containing lipid A, DSPC, cholesterol and PEG lipid is prepared by solubilized in 90% ethanol. The remaining 10% is low pH citrate buffer. The concentration of the lipid stock is 4 mg/mL. The pH of this citrate buffer can range between pH 3-5, depending on the type of fusogenic lipid employed. The siRNA is also solubilized in citrate buffer at a concentration of 4 mg/mL. For small scale, 5 mL of each stock solution is prepared.
Stock solutions are completely clear and lipids must be completely solubilized before combining with siRNA. Therefore stock solutions may be heated to completely solubilize the lipids. The siRNAs used in the process may be unmodified oligonucleotides or modified and may be conjugated with lipophilic moieties such as cholesterol.
The individual stocks are combined by pumping each solution to a T-junction. A dual-head Watson-Marlow pump is used to simultaneously control the start and stop of the two streams. A 1.6 mm polypropylene tubing is further downsized to a 0.8 mm tubing in order to increase the linear flow rate. The polypropylene line (ID=0.8 mm) are attached to either side of a T-junction. The polypropylene T has a linear edge of 1.6 mm for a resultant volume of […]. Each of the large ends (1.6 mm) of polypropylene line is placed into test tubes containing either solubilized lipid stock or solubilized siRNA. After the T-junction a single tubing is placed where the combined stream will emit. The tubing is then extending into a container with 2× volume of PBS. The PBS is rapidly stirring. The flow rate for the pump is at a setting of 300 rpm or 110 mL/min. Ethanol is removed and exchanged for PBS by dialysis. The lipid formulations are then concentrated using centrifugation or diafiltration to an appropriate working concentration.
Test formulations are initially assessed for their FVII knockdown in female 7-9 week old, 15-25 g, female C57Bl/6 mice at 0.1, 0.3, 1.0 and 5.0 mg/kg with 3 mice per treatment group. All studies include animals receiving either phosphate-buffered saline (PBS, Control group) or a benchmark formulation. Formulations are diluted to the appropriate concentration in PBS immediately prior to testing. Mice are weighed and the appropriate dosing volumes calculated (10 μl/g body weight). Test and benchmark formulations as well as PBS (for Control animals) are administered intravenously via the lateral tail vein. Animals are anesthetised 24 hours later with an intraperitoneal injection of Ketamine/Xylazine and 500-700 μl of blood is collected by cardiac puncture into serum separator tubes (BD Microtainer). Blood is centrifuged at 2,000×g for 10 minutes at 15° C. and serum is collected and stored at −70° C. until analysis. Serum samples are thawed at 37° C. for 30 minutes, diluted in PBS and aliquoted into 96-well assay plates. Factor VII levels are assessed using a chromogenic assay (Biophen FVII kit, Hyphen BioMed) according to manufacturer's instructions and absorbance is measured in a microplate reader equipped with a 405 nm wavelength filter. Plasma FVII levels are quantified and ED50s (dose resulting in a 50% reduction in plasma FVII levels compared to control animals) calculated using a standard curve generated from a pooled sample of serum from control animals. Those formulations of interest showing high levels of FVII knockdown (ED50<<0.1 mg/kg) are re-tested in independent studies at a lower dose range to confirm potency and establish ED50 levels.

Which “ED50 (Mouse FVII)” value does the source give for CN(C)CCCC(=O)OC(CCCCCCCCC(=O)OC1CCCCC1)CCCCCCCCC(=O)OC1CCCCC1 here?
The value was over 0.30 mg/kg.

With CC(OCCCCCCCCCC(CCCCCCCCCOC(=O)C1CCCCC1)OC(=O)CCCN(C)C)C1CCCCC1 (centres unmarked) as the compound, how does the “ED50 (Mouse FVII)” value read?
The value was 0.032 mg/kg.

Which “ED50 (Mouse FVII)” value does the source give for CCCCC(CCCC)OC(=O)CCCCCCCCC(CCCCCCCCC(=O)OC(CCCC)CCCC)OC(=O)CCCN(C)C here?
Its value is 0.010 mg/kg.

How did the “ED50 (Mouse FVII)” value turn out when CN(C)CCCC(=O)OC(CCCCCCCCCOC(=O)C1CCCC1)CCCCCCCCCOC(=O)C1CCCC1 was run?
Its value is over 0.30 mg/kg.

For CN(C)CCCC(=O)OC(CCCCCCCCCOC(=O)CCC1CCCC1)CCCCCCCCCOC(=O)CCC1CCCC1, which “ED50 (Mouse FVII)” value is on record?
Its value is 0.023 mg/kg.

How did the “ED50 (Mouse FVII)” value turn out when CN(C)CCCC(=O)OC(CCCCCCCCC(=O)OC1CCCC1)CCCCCCCCC(=O)OC1CCCC1 was run?
Its value is over 0.30 mg/kg.

For CN(C)CCCC(=O)OC(CCCCCCCCC(=O)OCCCC1CCCC1)CCCCCCCCC(=O)OCCCC1CCCC1, which “ED50 (Mouse FVII)” value is on record?
The value was 0.12 mg/kg.

Which “ED50 (Mouse FVII)” value does the source give for CN(C)CCCC(=O)OC(CCCCCC(=O)OC1CCCCC1)CCCCCC(=O)OC1CCCC1 (centres unmarked) here?
The value was over 0.30 mg/kg.

Which “ED50 (Mouse FVII)” value does the source give for CN(C)CCCC(=O)OC(CCCCCC(=O)OC1CCCC1)CCCCCC(=O)OC1CCCC1 here?
The value was over 0.30 mg/kg.

Which “ED50 (Mouse FVII)” value does the source give for CCCCC(C)C(=O)OCCCCCCCCCC(CCCCCCCCCOC(=O)C(C)CCCC)OC(=O)CCCN(C)C (centres unmarked) here?
Its value is over 0.30 mg/kg.

With CCCCC(CCCC)OC(=O)CCCCCC(CCCCCC(=O)OC(CCCC)CCCC)OC(=O)CCCN(C)C as the compound, how does the “ED50 (Mouse FVII)” value read?
Its value is over 0.30 mg/kg.

How did the “ED50 (Mouse FVII)” value turn out when CCCCCC(CCCC)OC(=O)CCCCCCCCC(CCCCCCCCC(=O)OC(CCCC)CCCCC)OC(=O)CCCN(C)C (centres unmarked) was run?
Its value is 0.009 mg/kg.

Which “ED50 (Mouse FVII)” value does the source give for CCCCCC(CC)C(=O)OCCCCCCCCCC(CCCCCCCCCOC(=O)C(CC)CCCCC)OC(=O)CCCN(C)C (centres unmarked) here?
Its value is 0.008 mg/kg.

How did the “ED50 (Mouse FVII)” value turn out when CCCCCCOC(=O)CCCCCCCCCCCC(CCCCCCCCCCCC(=O)OCCCCCC)OC(=O)CCCN(C)C was run?
Its value is 0.013 mg/kg.

CC(C)CC(CC(C)C)OC(=O)CCCCCCCCCCCC(CCCCCCCCCCCC(=O)OC(CC(C)C)CC(C)C)OC(=O)CCCN(C)C was tested. Which “ED50 (Mouse FVII)” value did it give?
The value was 0.020 mg/kg.

With CCCCC(CC)C(=O)OCCCCCCCCCC(CCCCCCCCCOC(=O)C(CC)CCCC)OC(=O)CCCN(C)C (centres unmarked) [drawing 149] as the compound, how does the “ED50 (Mouse FVII)” value read?
Its value is 0.005 mg/kg.

CCCCC(CC)C(=O)OCCCCCCCCCC(CCCCCCCCCOC(=O)C(CC)CCCC)OC(=O)CCCN(C)C (centres unmarked) [drawing 162] was tested. Which “ED50 (Mouse FVII)” value did it give?
Its value is 0.088 mg/kg.
